For test [1], the target named is TF-NanU (TF0034) (Tannerella forsythia, UniProt G8UIQ0). Nature of the test: Steady-state tryptophan fluorescence titration, TF-NanU. The settings on record: 0.5 μM protein, 25 mM sodium phosphate pH 7.4, 25°C, one-site specific binding. The method, then:
(§1) Proteins were diluted in 25 mM sodium phosphate buffer, pH 7.4, to a final concentration of 0.5 μM and incubated at 25°C for 5 min before substrate titration. The quenching of intrinsic tryptophan fluorescence was measured at 25°C with constant stirring in a 104F-QS quartz fluorescence semi-micro cell (Hellma Analytics) using a Varian Cary Eclipse spectrofluorometer. The excitation and emission wavelengths were 295 nm (5 nm slit width) and 330 nm (10 nm slit width) respectively. Corrections for background fluorescence changes due to dilution effects with the stepwise addition of ligands were made by buffer titrations. Analysis and curve fitting of titration data were performed in Prism 5 (GraphPad Software), with the equilibrium dissociation constants (Kd) for one site-specific binding calculated using eqn (1): (1) Y=Bmax×X/(Kd+X) where X is the final concentration of ligand, Y is the percentage increase in protein quenching in relation to the protein-only fluorescence signal and Bmax is the extrapolated maximum specific binding.

Test [2] concerns NanU. In words: Steady-state tryptophan fluorescence titration, NanU (species not told apart). It counts as binding. The settings on record: for binding to NanU (in words): tryptophan fluorescence quenching. The protocol: as §1
The target in test [3] is BF-NanU (BF1720) (Bacteroides fragilis, UniProt Q5LEN2). In words: Steady-state tryptophan fluorescence titration, BF-NanU. Format: binding. The method, then:
as §1

The test system of test [4] is BT1043. Further details: method as in PMID 19191477. The settings on record: non-physiological ligand; cited from earlier work.
The target in test [5] is SiaP. Set-up: method as in PMID 16702222. The settings on record: cited from earlier work.
Test [6] deals with lectin domain of the Vibrio cholerae sialidase. Further details: method as in PMID 15226294. The settings on record: read-out: affinity; cited from earlier work.
Test [7] deals with SusD. Set-up: method as in PMID 18611383. The settings on record: non-physiological ligand; cited from earlier work.
The mark [8] stands for this setting: 0.5 μM protein, 25 mM sodium phosphate pH 7.4, 25°C, one-site specific binding.

This is an account of results in PMC3969230, “Structural and functional characterization of NanU, a novel high-affinity sialic acid-inducible binding protein of oral and gut-dwelling Bacteroidetes species” (Biochemical Journal, 2014).

Several values for one entry are separate records, joined by “and”; a condition that tells them apart may be missing. Equal values may be shown once.

Chain of BF-NanU (BF1720) (Q5LEN2 entry or part of it): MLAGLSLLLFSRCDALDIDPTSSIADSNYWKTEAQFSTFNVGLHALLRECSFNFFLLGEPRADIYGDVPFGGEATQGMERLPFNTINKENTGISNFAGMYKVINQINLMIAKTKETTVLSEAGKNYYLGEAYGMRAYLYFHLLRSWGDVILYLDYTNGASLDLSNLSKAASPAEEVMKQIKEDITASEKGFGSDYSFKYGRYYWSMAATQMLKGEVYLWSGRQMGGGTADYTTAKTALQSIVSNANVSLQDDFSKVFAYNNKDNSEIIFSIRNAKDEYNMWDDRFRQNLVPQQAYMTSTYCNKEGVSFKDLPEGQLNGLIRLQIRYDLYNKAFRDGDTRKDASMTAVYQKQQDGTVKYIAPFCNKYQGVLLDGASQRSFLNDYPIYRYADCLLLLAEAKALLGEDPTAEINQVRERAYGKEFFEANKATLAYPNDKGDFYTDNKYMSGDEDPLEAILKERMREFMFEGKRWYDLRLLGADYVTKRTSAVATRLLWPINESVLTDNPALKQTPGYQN
Chain of TF-NanU (TF0034) (G8UIQ0 entry or part of it): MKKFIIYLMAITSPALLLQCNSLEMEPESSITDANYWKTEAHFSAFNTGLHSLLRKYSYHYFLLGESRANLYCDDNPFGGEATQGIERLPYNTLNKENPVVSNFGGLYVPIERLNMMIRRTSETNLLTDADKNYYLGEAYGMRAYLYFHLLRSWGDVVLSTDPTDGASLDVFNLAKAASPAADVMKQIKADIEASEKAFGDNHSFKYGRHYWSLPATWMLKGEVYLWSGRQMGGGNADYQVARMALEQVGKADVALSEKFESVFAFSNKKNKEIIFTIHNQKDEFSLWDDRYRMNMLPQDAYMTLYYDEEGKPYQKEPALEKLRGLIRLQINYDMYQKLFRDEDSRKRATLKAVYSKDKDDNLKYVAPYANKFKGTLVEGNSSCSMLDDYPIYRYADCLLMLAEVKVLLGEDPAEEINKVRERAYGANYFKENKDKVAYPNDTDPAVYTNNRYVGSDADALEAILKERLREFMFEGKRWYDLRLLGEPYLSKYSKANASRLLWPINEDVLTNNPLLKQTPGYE

Turning to `O=C(CO)N[C@H]1[C@H]([C@H](O)[C@H](O)CO)O[C@](O)(C(=O)O)C[C@@H]1O` [Neu5Gc, N-glycolylneuraminic acid], the Kd in test [1] is 1700 nM and 1990 nM and 2000 nM; in test [3] (setting [8]) it was 2000 nM and 1670 nM and 1700 nM. Also, the “affinity lower than Neu5Ac (fold)” value in test [2] (Neu5Gc compared with Neu5Ac) is 5 fold.
Consider `CC(=O)N[C@H]1NC[C@H](C(=O)O)[C@H](O)[C@@H]1O` [Siastatin B, siastatin B], for which the entries for the “binding to NanU (in words)” value in test [2] and in test [2] (listed as siastatin B) were “No binding” and “neither”, respectively.
As for `CC(=O)N[C@H]1C(O)O[C@H](CO)[C@@H](O[C@@H]2O[C@H](CO)[C@H](O)[C@H](O)[C@H]2O)[C@@H]1O` (stereo partly shown) [N-acetyl lactosamine], the “binding interaction (range in words)” value in test [4] is listed as “in the mM range”.
Take `CC(=O)NC1C(O)CC(OC2C(O)C(CO)OC(OC3C(CO)OC(O)C(O)C3O)C2O)(C(=O)O)OC1C(O)C(O)CO` (stereo not shown) [3′-siallyl-lactose]: in test [2], the “binding to NanU (in words)” value is reported as “did not display any interaction”.
Consider `CCOC(=O)C1=C[C@@H](OC(CC)CC)[C@H](NC(C)=O)[C@@H](N)C1` [Oseltamivir, oseltamivir], for which the “binding to NanU (in words)” value was “No binding” in test [2] and “neither” in test [2] (listed as oseltamivir).
On to sialyl-lactose, for which the “binding to NanU (in words)” value in test [2] was “does not bind”.
As to `CC(=O)N[C@H]1[C@H]([C@H](O)[C@H](O)CO)OC(C(=O)O)=C[C@@H]1O` [Neu5Ac2en, 2-deoxy-2,3-didehydro-Neu5Ac], the Kd in test [1] was 8300 nM and 8290 nM; in test [3] (setting [8]), 5600 nM and 5550 nM.
Regarding `CC(=O)NC1C(O)CC(OCC2OC(OC3C(CO)OC(O)C(O)C3O)C(O)C(O)C2O)(C(=O)O)OC1C(O)C(O)CO` (stereo not shown) [6′-siallyl-lactose], the “binding to NanU (in words)” value in test [2] was “did not display any interaction”.
Turning to `CC(=O)N[C@H]1[C@H]([C@H](O)[C@H](O)CO)OC(C(=O)O)=C[C@@H]1N=C(N)N` [Zanamivir, zanamivir], the Kd in test [1] was 1100 nM and 1130 nM; in test [3] (setting [8]), 900 nM and 905 nM.
Consider `CC(=O)N[C@H]1[C@H]([C@H](O)[C@H](O)CO)OC(O)(C(=O)O)C[C@@H]1O` (stereo partly shown) [Neu5Ac, 5-N-acetylneuraminic acid], for which the Kd is 425 nM and 400 nM in test [1]; about 400 nM in test [2] (NanU from two Bacteroidetes species, approximate summary value); 120 nM in test [5]; 30 µM in test [6]; 397 nM and 400 nM in test [3] (setting [8]); 409 nM in test [3] (BF-NanU expressed and purified from cells grown in M9 medium plus glycerol (results not shown)).
In the case of cyclodextrin, the “binding interaction (range in words)” value in test [7] is recorded as “in the hundreds of μM range”.
